In patent publication US7994196B2, “Indazole compound and pharmaceutical use thereof” (Mitsubishi Tanabe Pharma Corporation, priority 2004, dated 2011) one finds IC50 data, which are given here for 38 compounds.

Like-named read-outs stand apart in the source and are kept apart here.

In the assay the test system is MMP-9 production. The assay is described as follows: Determination of MMP-9 Production Inhibitory Activity (PMA-stimulated HEC3 cells, gelatin zymography). The assay is classed as cell-based. Conditions: Endothelial cell, immortalized human vascular endothelial cells HEC3, PMA 10^-7 M stimulation, test substance at 10, 2, 0.4 and 0.08 μM, read-out: IC50 (MMP-9 production inhibitory rate). On the procedure:
Immortalized human vascular endothelial cells HEC3 (supplied by Prof. Iijima of Nagoya University) were subcultured in RPMI1640 medium (Sigma Ltd.) containing 10% fetal calf serum.
The HEC3 cells (5×10^4 cells/well) were plated on a 24-well plate, and cultured in RPMI1640 medium containing 10% fetal calf serum for 24 hr. Each well was washed once with serum-free RPMI1640 medium. Then, RPMI1640 medium (250 μl/well) containing 0.05% fetal calf serum was added to each well, and the cells were further cultured for 2 hr.
The supernatant was removed, and the test substances (Example compounds shown in Table 1) diluted to various concentrations were added and incubated for 1 hr in 0.05% serum-containing RPMI1640 medium and the supernatant was removed again. A medium containing a test substance having the same concentration as in the pre-treatment and PMA (10^−7 M), which is a stimulant, was added at 250 μl/well, and the cells were further cultured for 24 hr.
After completion of the culture, water (50 μl) and 25 μl of SDS buffer (240 mM Tris-HCl (pH 6.8), 8% SDS, 40% glycerol) were added to the culture supernatant (25 μl), and the mixture (10 μl) was electrophoresed on a 7.5% polyacrylamide gel containing 0.1% gelatin.
After the electrophoresis, the gel was washed with Tris-HCl buffer (pH 7.5) containing 0.5% Triton X-100 (Sigma Ltd.) for 1 hr. The gel was immersed in an activation buffer (150 mM NaCl, 50 mM Tris-HCl (pH 7.5), 10 mM CaCl2) at 37° C. for 18 hr to activate MMP-9, and then stained with CBB. The obtained MMP-9 band was converted to numerical values by a densitometer (ATTO. Ltd.).
The MMP-9 production inhibitory rate by the test substance was calculated by the following equation. MMP-9 production inhibitory rate=100−100×{(test substance addition value−non-stimulation value)/(PMA stimulation value−non-stimulation value)}
The MMP-9 production inhibitory rates of the test substance at 10, 2, 0.4 and 0.08 μM were calculated, and IC50 value of the each test substance was determined using an analysis soft (RegExcel).

For the compound `Cc1cccc(C2(O)CCN(C(=O)Nc3n[nH]c4ccccc34)CC2)c1C` [Ex. 144, 4-(2,3-dimethylphenyl)-4-hydroxy-1-piperidinecarboxylic acid (1H-indazol-3-yl)amide], where the note is “Homo sapiens, 24 h”, the IC50 was 650 nM.
For the compound `O=C(Nc1n[nH]c2ccccc12)N1CCN(c2ccc(F)c(C(F)(F)F)c2)CC1` [Ex. 94, 4-[4-fluoro-3-(trifluoromethyl)phenyl]-1-piperazinecarboxylic acid (1H-indazol-3-yl)amide], the IC50 (Homo sapiens, 24 h) is 340 nM.
`Cn1c2c(c3ccccc31)CCN(C(=O)Nc1n[nH]c3ccccc13)C2` [Ex. 65]: the IC50 (Homo sapiens, 24 h) was found to be 160 nM.
On to `CN(C)CC1c2[nH]c3ccccc3c2CCN1C(=O)Nc1n[nH]c2ccccc12` (stereo not drawn) [Ex. 108, 1-[(dimethylamino)methyl]-1,3,4,9-tetrahydro-β-carboline-2-carboxylic acid (1H-indazol-3-yl)amide], for which the IC50 (Homo sapiens, 24 h) came to 670 nM.
As for `O=C(Nc1n[nH]c2ccccc12)N1CC=C(c2cccc(C(F)(F)F)c2)CC1` [Ex. 61], the IC50 (Homo sapiens, 24 h) is 100 nM.
In the case of `O=C(Nc1n[nH]c2ccccc12)N1CCC(O)(c2cccc(Cl)c2F)CC1` [Ex. 20], the IC50 (Homo sapiens, 24 h) amounted to 320 nM.
As to `Cc1ccc2[nH]c3c(c2c1)CCN(C(=O)Nc1n[nH]c2ccccc12)C3` [Ex. 81, 6-methyl-1,3,4,9-tetrahydro-β-carboline-2-carboxylic acid (1H-indazol-3-yl)amide], the IC50 (Homo sapiens, 24 h) worked out at 100 nM.
On to `O=C(Nc1n[nH]c2ccccc12)N1CCc2c([nH]c3cc(Cl)ccc23)C1` [Ex. 75], for which, for the setting “Homo sapiens, 24 h”, the IC50 was determined as 110 nM.
Consider `COc1ccccc1C1(C#N)CCN(C(=O)Nc2n[nH]c3ccccc23)CC1` [Ex. 40], for which, for the setting “24 hr”, the IC50 was 840 nM.
Take `O=C(Nc1n[nH]c2ccccc12)N1CCc2c(c(=O)oc3ccccc23)C1` [Ex. 103, 5-oxo-1,5-dihydro-2H-chromeno[3,4-c]pyridine-3-carboxylic acid (1H-indazol-3-yl)amide]: under “Homo sapiens, 24 h”, the IC50 was 60 nM.
As to `N#CC1(c2ccccc2F)CCN(C(=O)Nc2n[nH]c3ccccc23)CC1` [Ex. 43], for the setting “24 hr”, the IC50 came to 450 nM.
For `O=C(Nc1n[nH]c2ccccc12)N1CC=C(c2cccs2)CC1` [Ex. 60], the IC50 (Homo sapiens, 24 h) is 130 nM.
On to `O=C(Nc1n[nH]c2ccccc12)N1CCC(O)(c2cccc(C(F)(F)F)c2)CC1` [Ex. 3], for which the IC50 (Homo sapiens, 24 h) is 930 nM.
With `O=C(Nc1n[nH]c2ccccc12)N1CCc2c([nH]c(=O)c3ccccc23)C1` [Ex. 109, 6-oxo-1,4,5,6-tetrahydrobenzo[c]-1,7-naphthyridine-3-carboxylic acid (1H-indazol-3-yl)amide], under “Homo sapiens, 24 h”, the IC50 stood at 140 nM.
Take `O=C(Nc1n[nH]c2ccccc12)N1CCC(O)(c2ccc(F)c(C(F)(F)F)c2)CC1` [Ex. 9]: the IC50 (Homo sapiens, 24 h) worked out at 340 nM.
Regarding `O=C(Nc1n[nH]c2ccccc12)N1CCC(O)(c2cc(Cl)ccc2Cl)CC1` [Ex. 33], for the setting “Homo sapiens, 24 h”, the IC50 came out at 310 nM.
Regarding `O=C(Nc1n[nH]c2ccccc12)N1CCC(c2cccc(C(F)(F)F)c2)CC1` [Ex. 112, 4-[3-(trifluoromethyl)phenyl]piperidine-1-carboxylic acid (1H-indazol-3-yl)amide], the 50% inhibitory concentration (IC50) (Homo sapiens, 24 h) was found to be 700 nM.
On to `O=C(Nc1n[nH]c2ccccc12)N1CCn2c(nc3ccccc32)C1` [Ex. 105, 3,4-dihydropyrazino[1,2-a]benzimidazole-2-carboxylic acid (1H-indazol-3-yl)amide], for which, under “Homo sapiens, 24 h”, the IC50 came out at 40 nM.
On to `O=C(Nc1n[nH]c2ccccc12)N1CC=C(c2ccc(F)cc2)CC1` [Ex. 50], for which the IC50 (Homo sapiens, 24 h) was determined as 1300 nM.
Regarding `O=C(Nc1n[nH]c2ccccc12)N1CCc2c([nH]c3ccc(F)cc23)C1` [Ex. 70], the IC50 (Homo sapiens, 24 h) worked out at 60 nM.
The same measure, in the same setting: with `Cc1ccc(C2(O)CCN(C(=O)Nc3n[nH]c4ccccc34)CC2)cc1Cl` [Ex. 132, 4-(3-chloro-4-methylphenyl)-4-hydroxy-1-piperidinecarboxylic acid (1H-indazol-3-yl)amide] the figure was 390 nM; with `O=C(Nc1n[nH]c2ccccc12)N1CCc2c(sc3ccccc23)C1` [Ex. 80, 3,4-dihydro[1]benzothieno[2,3-c]pyridine-2-carboxylic acid (1H-indazol-3-yl)amide], 250 nM.
In the case of `N#CC1(c2ccc(Cl)c(C(F)(F)F)c2)CCN(C(=O)Nc2n[nH]c3ccccc23)CC1` [Ex. 44], the IC50 (24 hr) was 450 nM.
In the case of `Cc1cc(C2(O)CCN(C(=O)Nc3n[nH]c4ccccc34)CC2)ccc1Cl` [Ex. 23], the IC50 (Homo sapiens, 24 h) is 450 nM.
As for `O=C(Nc1n[nH]c2ccccc12)N1CC=C(c2ccc(Cl)s2)CC1` [Ex. 58], for the setting “Homo sapiens, 24 h”, the 50% inhibitory concentration (IC50) was found to be 120 nM.
The same measure, in the same setting: then `Cc1ccc(C2(O)CCN(C(=O)Nc3n[nH]c4ccccc34)CC2)cc1C(F)(F)F` [Ex. 10], with 530 nM; and `Cc1cccc2c3c([nH]c12)CN(C(=O)Nc1n[nH]c2ccccc12)CC3` [Ex. 79, 8-methyl-1,3,4,9-tetrahydro-β-carboline-2-carboxylic acid (1H-indazol-3-yl)amide], with 160 nM; and `O=C(Nc1n[nH]c2ccccc12)N1CCN(c2cc(C(F)(F)F)ccc2Cl)CC1` [Ex. 99, 4-[2-chloro-5-(trifluoromethyl)phenyl]-1-piperazinecarboxylic acid (1H-indazol-3-yl)amide], with 610 nM.
Take `O=C(Nc1n[nH]c2ccccc12)N1CCC(O)(c2cc(F)cc(C(F)(F)F)c2)CC1` [Ex. 6]: the IC50 (Homo sapiens, 24 h) is 290 nM.
The same measure, in the same setting: then `O=C(Nc1n[nH]c2ccccc12)N1CCc2c([nH]c3cc(F)ccc23)C1` [Ex. 71], with 140 nM.
On to `O=C(Nc1n[nH]c2ccccc12)N1CCc2c([nH]c3cccc(Cl)c23)C1` [Ex. 78, 5-chloro-1,3,4,9-tetrahydro-β-carboline-2-carboxylic acid (1H-indazol-3-yl)amide], for which the IC50 (Homo sapiens, 24 h) is 280 nM.
For the compound `Cc1c(F)cccc1C1(O)CCN(C(=O)Nc2n[nH]c3ccccc23)CC1` [Ex. 134, 4-(3-fluoro-2-methylphenyl)-4-hydroxy-1-piperidinecarboxylic acid (1H-indazol-3-yl)amide], the IC50 (Homo sapiens, 24 h) came to 680 nM.
Take `CN(C)c1cccc(C2=CCN(C(=O)Nc3n[nH]c4ccccc34)CC2)c1` [Ex. 63]: the IC50 (Homo sapiens, 24 h) was found to be 360 nM.
Regarding `COCCn1c2c(c3ccccc31)CCN(C(=O)Nc1n[nH]c3ccccc13)C2` [Ex. 66], under “Homo sapiens, 24 h”, the IC50 was 630 nM.
Still for that read-out and setting: then `O=C(Nc1n[nH]c2ccccc12)N1CCC(O)(c2cc(F)cc(F)c2)CC1` [Ex. 12], with 610 nM; and `Cc1cc(C)cc(C2(O)CCN(C(=O)Nc3n[nH]c4ccccc34)CC2)c1` [Ex. 143, 4-(3,5-dimethylphenyl)-4-hydroxy-1-piperidinecarboxylic acid (1H-indazol-3-yl)amide], with 280 nM; and `O=C(Nc1n[nH]c2ccccc12)N1CCN(c2cccc(C(F)(F)F)c2)CC1` [Ex. 100, 4-[3-(trifluoromethyl)phenyl]-1-piperazinecarboxylic acid (1H-indazol-3-yl)amide], with 230 nM.
Consider `O=C(Nc1n[nH]c2ccccc12)N1CCc2c(c(=O)[nH]c3ccccc23)C1` [Ex. 104, 5-oxo-1,4,5,6-tetrahydrobenzo[c]-2,7-naphthyridine-3-carboxylic acid (1H-indazol-3-yl)amide], for which the IC50 (Homo sapiens, 24 h) was determined as 10 nM.

Broadly, the IC50 is the point on the concentration scale where inhibition reaches its midpoint.
